Experimental data: patent US20240246967A1, “AXL COMPOUNDS” (ARCUS BIOSCIENCES, INC., priority 2021, published 2024)

Assays:
Axl [1] = molecular target: T1, Axl (Homo sapiens, UniProt P30530); assay: HTRF KinEASE-TK biochemical potency assay, AXL; set-up: purchased Invitrogen; details: 5 nM AXL, 700 μM ATP, 800 nM TK Substrate-biotin
T1 sequence (P30530 26-894): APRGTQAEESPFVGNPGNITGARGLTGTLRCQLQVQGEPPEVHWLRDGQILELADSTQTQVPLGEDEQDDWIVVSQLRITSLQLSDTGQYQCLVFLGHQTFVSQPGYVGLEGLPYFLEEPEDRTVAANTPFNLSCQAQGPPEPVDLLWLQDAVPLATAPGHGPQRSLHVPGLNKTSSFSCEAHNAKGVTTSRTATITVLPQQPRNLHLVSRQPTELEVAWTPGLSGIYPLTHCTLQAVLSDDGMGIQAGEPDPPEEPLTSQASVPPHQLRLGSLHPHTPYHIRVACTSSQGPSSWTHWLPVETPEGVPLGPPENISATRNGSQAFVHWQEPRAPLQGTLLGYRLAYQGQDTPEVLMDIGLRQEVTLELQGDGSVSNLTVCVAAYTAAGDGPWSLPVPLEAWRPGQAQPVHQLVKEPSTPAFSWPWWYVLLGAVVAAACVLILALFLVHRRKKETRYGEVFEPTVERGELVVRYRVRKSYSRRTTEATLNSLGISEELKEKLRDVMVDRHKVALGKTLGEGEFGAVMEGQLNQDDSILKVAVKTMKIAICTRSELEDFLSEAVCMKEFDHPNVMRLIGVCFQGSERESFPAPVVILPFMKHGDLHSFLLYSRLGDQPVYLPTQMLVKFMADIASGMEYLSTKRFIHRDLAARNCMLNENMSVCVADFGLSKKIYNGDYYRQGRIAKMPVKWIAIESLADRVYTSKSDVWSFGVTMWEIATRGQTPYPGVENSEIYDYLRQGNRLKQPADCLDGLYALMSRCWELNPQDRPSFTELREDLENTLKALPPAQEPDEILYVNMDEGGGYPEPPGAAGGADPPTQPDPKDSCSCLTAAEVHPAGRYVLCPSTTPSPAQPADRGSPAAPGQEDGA
How it was run: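 Recombinant human kinase preincubated 1 h at RT with compound, then reacted 2 h at RT with final 5 nM AXL or 1 nM TYRO3/MER, 800 nM TK Substrate-biotin and 700 μM ATP in HEPES pH 7.4, 10 mM MgCl2, 1% DMSO. Phosphorylation read by HTRF 665/620 ratio, expressed as percent activity.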

Axl [2] = molecular target: T1, Axl; assay: Axl NanoBRET intracellular kinase assay (intracellular binding, Cell Binding); set-up: host or cells: HEK-293; details: HEK-293 cells transfected with Axl-NanoLuc fusion vector; 0.35 μM K-5 NanoBRET tracer
How it was run: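 HEK-293 cells transiently expressing Axl-NanoLuc fusion were pre-incubated with compound for 1 h at 37 °C (0.5% DMSO), then with 0.35 μM K-5 tracer for 2 h. Tracer displacement read as reduced BRET ratio (610/450 nm); IC50 from 4-parameter fit.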

SMILES: C[C@@H]1CCCN1C1(C)CCc2ccc(-c3cnc4[nH]nc(-c5ccc(C(N)=O)c(F)c5)c4c3)cc2CC1 (stereo partly drawn) [Example 52, 2-Fluoro-4-(5-(7-methyl-7-((R)-2-methylpyrrolidin-1-yl)-6,7,8,9-tetrahydro-5H-benzo[7]annulen-2-yl)-1H-pyrazolo[3,4-b]pyridin-3-yl)benzamide]
- IC50 (Axl [1]): < 100 nM
- IC50 (Axl [2]): < 100 nM

SMILES: COc1cc(-c2n[nH]c3ncc(-c4ccc5c(c4)CCC(C)(N4CCC[C@H]4C)CC5)cc23)ccc1OC[C@H]1COCCO1 (stereo partly drawn) [Example 114, (2R)-1-{2-[3-(4-{[(2R)-1,4-Dioxan-2-yl]methoxy}-3-methoxyphenyl)-1H-pyrazolo[3,4-b]pyridin-5-yl]-7-methyl-6,7,8,9-tetrahydro-5H-benzo[7]annulen-7-yl}-2-methylpyrrolidine]
- IC50 (Axl [1]): < 100 nM
- IC50 (Axl [2]): < 100 nM

SMILES: C[C@@H]1CCCN1[C@@H]1CCc2cc(-c3cnc4[nH]nc(-c5ccc(S(=O)(=O)C6CC6)cc5)c4c3)cnc2CC1 [Example 101, (2R)-1-(3-{3-[4-(Cyclopropanesulfonyl)phenyl]-1H-pyrazolo[3,4-b]pyridin-5-yl}-5H,6H,7H,8H,9H-cyclohepta[b]pyridin-7-yl)-2-methylpyrrolidine]
- IC50 (Axl [1]): < 100 nM
- IC50 (Axl [2]): > 1000 nM

SMILES: C[C@@H]1CCCN1C1(C)CCc2ccc(-c3cnc4[nH]nc(-c5ccc(C(=O)N6CCCC6)cc5)c4c3)cc2CC1 (stereo partly drawn) [Example 118, (2R)-2-Methyl-1-(7-methyl-2-{3-[4-(pyrrolidine-1-carbonyl)phenyl]-1H-pyrazolo[3,4-b]pyridin-5-yl}-6,7,8,9-tetrahydro-5H-benzo[7]annulen-7-yl)pyrrolidine]
- IC50 (Axl [1]): < 100 nM
- IC50 (Axl [2]): < 100 nM

SMILES: CC1(N2CCc3ccc(-c4cnc5[nH]nc(-c6ccc(S(=O)(=O)C7CC7)cc6)c5c4)cc3CC2)CCCC1 [Example 120, 7-{3-[4-(Cyclopropanesulfonyl)phenyl]-1H-pyrazolo[3,4-b]pyridin-5-yl}-3-(1-methylcyclopentyl)-2,3,4,5-tetrahydro-1H-3-benzazepine]
- IC50 (Axl [1]): < 100 nM
- IC50 (Axl [2]): 100 to 1000 nM

SMILES: C[C@@H]1CCCN1C1CCc2ccc(-c3cnc4[nH]nc(-c5ccc(C(C)(C)O)c(C(F)(F)F)c5)c4c3)cc2CC1 (stereo partly drawn) [Example 20, 2-[4-(5-{7-[(2R)-2-Methylpyrrolidin-1-yl]-6,7,8,9-tetrahydro-5H-benzo[7]annulen-2-yl}-1H-pyrazolo[3,4-b]pyridin-3-yl)-2-(trifluoromethyl)phenyl]propan-2-ol]
- IC50 (Axl [1]): < 100 nM
- IC50 (Axl [2]): < 100 nM

SMILES: C[C@@H]1CCCN1C1CCc2ccc(-c3cnc4[nH]nc(-c5ccc(S(=O)(=O)C6CC6)cc5)c4c3)cc2CC1 (stereo partly drawn) [Example 39, 3-(4-(Cyclopropylsulfonyl)phenyl)-5-(7-((R)-2-methylpyrrolidin-1-yl)-6,7,8,9-tetrahydro-5H-benzo[7]annulen-2-yl)-1H-pyrazolo[3,4-b]pyridine]
- IC50 (Axl [1]): < 100 nM
- IC50 (Axl [2]): < 100 nM

SMILES: CC(C)(O)c1ccc(-c2n[nH]c3ncc(-c4ccc5c(c4)CCN(C4CCCC4)CC5)cc23)c(F)c1 [Example 17, 2-{4-[5-(3-Cyclopentyl-2,3,4,5-tetrahydro-1H-3-benzazepin-7-yl)-1H-pyrazolo[3,4-b]pyridin-3-yl]-3-fluorophenyl}propan-2-ol]
- IC50 (Axl [1]): < 100 nM
- IC50 (Axl [2]): 100 to 1000 nM

SMILES: CC(C)(O)c1ccc(-c2n[nH]c3ncc(-c4ccc5c(c4)CCN(C4CCCC4)CC5)cc23)cc1Cl [Example 12, 2-{2-Chloro-4-[5-(3-cyclopentyl-2,3,4,5-tetrahydro-1H-3-benzazepin-7-yl)-1H-pyrazolo[3,4-b]pyridin-3-yl]phenyl}propan-2-ol]
- IC50 (Axl [1]): < 100 nM
- IC50 (Axl [2]): 100 to 1000 nM

SMILES: C[C@@H]1CCCN1C1CCc2ccc(-c3cnc4[nH]nc(-c5ccc(C(C)(C)O)cn5)c4c3)cc2CC1 (stereo partly drawn) [Example 97, 2-[6-(5-{7-[(2R)-2-Methylpyrrolidin-1-yl]-6,7,8,9-tetrahydro-5H-benzo[7]annulen-2-yl}-1H-pyrazolo[3,4-b]pyridin-3-yl)pyridin-3-yl]propan-2-ol]
- IC50 (Axl [1]): < 100 nM
- IC50 (Axl [2]): > 1000 nM

SMILES: Cc1cc(-c2n[nH]c3ncc(-c4ccc5c(c4)CCN(C4CC4)CC5)cc23)ccc1C(=O)N1CCNCC1 [Example 119, 3-Cyclopropyl-7-{3-[3-methyl-4-(piperazine-1-carbonyl)phenyl]-1H-pyrazolo[3,4-b]pyridin-5-yl}-2,3,4,5-tetrahydro-1H-3-benzazepine]
- IC50 (Axl [1]): < 100 nM
- IC50 (Axl [2]): 100 to 1000 nM

SMILES: C[C@@H]1CCCN1C1CCc2ccc(-c3cnc4[nH]nc(-c5ccc(S(N)(=O)=O)c(Cl)c5)c4c3)cc2CC1 (stereo partly drawn) [Example 94, 2-Chloro-4-(5-(7-((R)-2-methylpyrrolidin-1-yl)-6,7,8,9-tetrahydro-5H-benzo[7]annulen-2-yl)-1H-pyrazolo[3,4-b]pyridin-3-yl)benzenesulfonamide]
- IC50 (Axl [1]): < 100 nM
- IC50 (Axl [2]): < 100 nM

SMILES: Cc1cc(-c2n[nH]c3ncc(-c4ccc5c(c4)CC[C@@H](N4CCCC4)CC5)cc23)cc(Cl)c1C(N)=O [Example 50, 2-Chloro-6-methyl-4-{5-[(7S)-7-(pyrrolidin-1-yl)-6,7,8,9-tetrahydro-5H-benzo[7]annulen-2-yl]-1H-pyrazolo[3,4-b]pyridin-3-yl}benzamide]
- IC50 (Axl [1]): < 100 nM
- IC50 (Axl [2]): < 100 nM

SMILES: COc1cc(-c2n[nH]c3ncc(-c4ccc5c(c4)CCC(C)(N4CCC[C@H]4C)CC5)cc23)ccc1C(N)=O (stereo partly drawn) [Example 53, 2-Methoxy-4-(5-(7-methyl-7-((R)-2-methylpyrrolidin-1-yl)-6,7,8,9-tetrahydro-5H-benzo[7]annulen-2-yl)-1H-pyrazolo[3,4-b]pyridin-3-yl)benzamide]
- IC50 (Axl [1]): < 100 nM
- IC50 (Axl [2]): < 100 nM

SMILES: CS(=O)(=O)c1ccc(-c2n[nH]c3ncc(-c4ccc5c(c4)CCN(C4CCCC4)CC5)cc23)cc1Cl [Example 31, 7-(3-(3-Chloro-4-(methylsulfonyl)phenyl)-1H-pyrazolo[3,4-b]pyridin-5-yl)-3-cyclopentyl-2,3,4,5-tetrahydro-1H-benzo[d]azepine]
- IC50 (Axl [1]): < 100 nM
- IC50 (Axl [2]): 100 to 1000 nM

SMILES: CS(=O)(=O)N1CCC(c2n[nH]c3ncc(-c4ccc5c(c4)CCC(N4CCCC4)CC5)cc23)CC1 (centres unmarked) [Example 23, 1-Methanesulfonyl-4-{5-[7-(pyrrolidin-1-yl)-6,7,8,9-tetrahydro-5H-benzo[7]annulen-2-yl]-1H-pyrazolo[3,4-b]pyridin-3-yl}piperidine]
- IC50 (Axl [1]): < 100 nM
- IC50 (Axl [2]): 100 to 1000 nM

SMILES: O=S(=O)(c1ccc(-c2n[nH]c3ncc(-c4ccc5c(c4)CC[C@@H](N4CCCC4)CC5)cc23)cc1)C1CC1 [Example 40, (S)-3-(4-(Cyclopropylsulfonyl)phenyl)-5-(7-(pyrrolidin-1-yl)-6,7,8,9-tetrahydro-5H-benzo[7]annulen-2-yl)-1H-pyrazolo[3,4-b]pyridine]
- IC50 (Axl [1]): < 100 nM
- IC50 (Axl [2]): < 100 nM

SMILES: O=C([C@H]1CCCN1)N1CCc2ccc(-c3cnc4[nH]nc(-c5ccc(S(=O)(=O)C6CC6)cc5)c4c3)cc2CC1 [Example 113, 7-{3-[4-(Cyclopropanesulfonyl)phenyl]-1H-pyrazolo[3,4-b]pyridin-5-yl}-3-[(2R)-pyrrolidine-2-carbonyl]-2,3,4,5-tetrahydro-1H-3-benzazepine]
- IC50 (Axl [1]): < 100 nM
- IC50 (Axl [2]): 100 to 1000 nM

SMILES: O=C([C@@H]1CCCN1)N1CCc2ccc(-c3cnc4[nH]nc(-c5ccc(S(=O)(=O)C6CC6)cc5)c4c3)cc2CC1 [Example 112, 7-{3-[4-(Cyclopropanesulfonyl)phenyl]-1H-pyrazolo[3,4-b]pyridin-5-yl}-3-[(2S)-pyrrolidine-2-carbonyl]-2,3,4,5-tetrahydro-1H-3-benzazepine]
- IC50 (Axl [1]): < 100 nM
- IC50 (Axl [2]): 100 to 1000 nM
